The values that follow are results of earlier work, collected in patent EP3272348A1, “PHARMACEUTICAL COMPOSITION COMPRISING IDELALISIB” (LEK Pharmaceuticals d.d., priority 2016, dated 2018).

Each structure is given as a SMILES string. Where two headings read alike, the source gives them in different places.

Assay in data set [1]: not given
This is another data set of the same source.

With `CC[C@H](Nc1ncnc2[nH]cnc12)c1nc2cccc(F)c2c(=O)n1-c1ccccc1` [Crystalline idelalisib, (S)-2-(I-(9H-purin-6-ylamino)propyl)-5-fluoro-3-phenyl-quinazolin-4(3H)-one], the permeability entry is “high permeability”. Also, in data set [1] (pH 1.2), the solubility entry is “soluble”. Besides, in data set [1] (pH 7), the solubility entry is reported as “not soluble”.
